Reference: patent US9034859B2, “Sulfated oxysterol and oxysterol sulfation by hydroxysterol sulfotransferase promote lipid homeostasis and liver proliferation” (Virginia Commonwealth University, priority 2011, dated 2015)
Values joined by “and” are separate entries in the source; they are usually repeats but may differ in a detail not shown here. Identical values can stand only once.

How the values were obtained:
[1] = system: lipogenic gene expression; assay: Relative hepatic mRNA expression by real-time RT-PCR, acute treatment; assay type: in vivo, C57BL/6J female mice; conditions: liver; for ABCA1 relative hepatic mRNA / ABCG1 relative hepatic mRNA / ACC1 relative hepatic mRNA / ACOX1 relative hepatic mRNA / CD36 relative hepatic mRNA / CPT1 relative hepatic mRNA / CYP7α relative hepatic mRNA / CYP27α relative hepatic mRNA / FABP1 relative hepatic mRNA / FAS relative hepatic mRNA / FATP relative hepatic mRNA / G6Pase relative hepatic mRNA / GCK relative hepatic mRNA / GPAM relative hepatic mRNA / LDLR relative hepatic mRNA / LXRα relative hepatic mRNA / MCAD relative hepatic mRNA / MTTP relative hepatic mRNA / PCK1 relative hepatic mRNA / PLTP relative hepatic mRNA / PPARα relative hepatic mRNA / Pkir relative hepatic mRNA / SCD relative hepatic mRNA / SRB1 relative hepatic mRNA / SREBP-1c relative hepatic mRNA / SULT2B1b relative hepatic mRNA: acute treatment (twice), mean ± SD, n=5-6
Protocol: (§1) Animal studies were approved by Institutional Animal Care and Use Committee of McGuire Veterans Affairs Medical Center and were conducted in accordance with the Declaration of Helsinki, the Guide for the Care and Use of Laboratory Animals, and all applicable regulations. To examine the effect of 25HC3S on diet-induced lipid accumulation in sera and liver, 8-week-old female C57BL/6J mice (Charles River, Wilmington, Mass.) were randomly assigned to three groups: the first control group was fed a chow diet; the high fat diet (HFD) group was fed a HFD (Harlan Teklad, Madison, Wis.) containing 42% kcal from fat, 43% kcal from carbohydrate, 15% kcal from protein and 0.2% cholesterol; and the high cholesterol diet (HCD) group was fed a 2% cholesterol diet with 18% kcal from fat, 58% kcal from carbohydrate and 24% kcal from protein for 10 weeks, respectively. All mice were housed under identical conditions in an aseptic facility and given free access to water and food. At the end of each period, the mice were intraperitoneally injected with vehicle solution (ethanol/PBS; Vehicle), 25HC (25 mg/kg), or 25HC3S (25 mg/kg) for 2 times and fasted over night for acute treatment (n=15-17 for each group) or once every three days for 6 weeks (n=16 for each group) and fasted 5 hrs for long-term treatment; and blood samples were collected. Serum triglyceride, total cholesterol, high density lipoprotein-cholesterol, glucose, alkaline phosphatase (ALK), alanine aminotransferase (ALT), and aspartate aminotransferase (AST) were measured using standard enzymatic techniques in the clinical laboratory at McGuire Veterans Affairs Medical Center. Lipoprotein profiles in sera were analyzed by HPLC as following described.
Total RNA was isolated with SV Total RNA Isolation Kit (Promega, Madison, Wis.), which included DNase treatment. Total RNA, 2 μg, was used for the first-strand cDNA synthesis as recommended by the manufacturer (Invitrogen, Carlsbad, Calif.). Real-time RT-PCR was performed using SYBR Green as indicator on ABI 7500 Fast Real-Time PCR System (Applied Biosystems, Foster City, Calif.). All primer/probe sets for real-time PCR were TaqMan gene expression assays (Applied Biosystems, Foster City, Calif.). Amplifications of β-actin and GAPDH were used as internal controls. Relative messenger RNA (mRNA) expression was quantified with the comparative cycle threshold (Ct) method and was expressed as 2^−ΔΔCt. Suitable primers were utilized.

[2] = Long-term treatment of HFD-fed mice: body mass, liver weight, plasma lipids, liver function; assay type: in vivo, C57BL/6J female mice
Protocol: as §1

[3] = system: apoptotic and cell cycle related genes; assay: Mouse Cell cycle RT2 Profiler PCR Array of liver tissues; assay type: in vivo, C57BL/6 mice; conditions: 5 mg/kg, versus vehicle
Protocol: The real-time PCR array was performed using the Mouse Cell cycle RT2 Profiler™ PCR Array consisting of 84 key genes involved in apoptosis and proliferation as the manufacturer's instruction (SABiosciences, Frederick, Md.). Total mRNA was reverse-transcribed to cDNA as described above. Three of biologically-distinct specimens were pooled to reduce variance. The cDNA was then amplified precisely like real-time PCR in the primers-preloaded PCR plates on the ABI 7500 Fast Real-Time PCR System. ΔΔCT values between different stimulated samples were analyzed as the manufacturer's instruction, which output p-values for fold-regulation change.

[4] = HFD mice, acute treatment, compared to vehicle

CC(CCCC(C)(C)O)C1CCC2C3CC=C4CC(OS(=O)(=O)O)CCC4(C)C3CCC12C (centres unmarked) [25HC3S, 25-hydroxycholesterol-3-sulfate]
ABCA1 relative hepatic mRNA ([1]; HFD mice): 0.71 ± 0.12
ABCG1 relative hepatic mRNA ([1]; HFD mice): 1.14 ± 0.76
ACC1 relative hepatic mRNA ([1]; HFD mice): 0.56 ± 0.12
ACOX1 relative hepatic mRNA ([1]; HFD mice): 0.82 ± 0.16
CD36 relative hepatic mRNA ([1]; HFD mice): 0.93 ± 0.36
CPT1 relative hepatic mRNA ([1]; HFD mice): 1.05 ± 0.19
CYP7α relative hepatic mRNA ([1]; HFD mice): 0.60 ± 0.18
CYP27α relative hepatic mRNA ([1]; HFD mice): 1.06 ± 0.23
FABP1 relative hepatic mRNA ([1]; HFD mice): 1.14 ± 0.45
FAS relative hepatic mRNA ([1]; HFD mice): 0.33 ± 0.21
FATP relative hepatic mRNA ([1]; HFD mice): 1.05 ± 0.29
G6Pase relative hepatic mRNA ([1]; HFD mice): 1.36 ± 0.77
GCK relative hepatic mRNA ([1]; HFD mice): 1.10 ± 0.68
GPAM relative hepatic mRNA ([1]; HFD mice): 1.16 ± 0.08
LDLR relative hepatic mRNA ([1]; HFD mice): 1.07 ± 0.09
LXRα relative hepatic mRNA ([1]; HFD mice): 0.79 ± 0.10
MCAD relative hepatic mRNA ([1]; HFD mice): 1.36 ± 0.31
MTTP relative hepatic mRNA ([1]; HFD mice): 1.31 ± 0.20
PCK1 relative hepatic mRNA ([1]; HFD mice): 1.02 ± 0.25
PLTP relative hepatic mRNA ([1]; HFD mice): 0.97 ± 0.55
PPARα relative hepatic mRNA ([1]; HFD mice): 0.93 ± 0.35
Pkir relative hepatic mRNA ([1]; HFD mice): 0.61 ± 0.18
SCD relative hepatic mRNA ([1]; HFD mice): 0.93 ± 0.27
SRB1 relative hepatic mRNA ([1]; HFD mice): 1.30 ± 0.22
SREBP-1c relative hepatic mRNA ([1]; HFD mice): 0.56 ± 0.13
SULT2B1b relative hepatic mRNA ([1]; HFD mice): 1.29 ± 0.34
reduction of ACCT mRNA level [1, 4]: 45%
reduction of FAS mRNA level [1, 4]: 70%
reduction of LXRα mRNA level [1, 4]: 20%
reduction of SREBP-1c mRNA level [1, 4]: 45%
liver weight ([2]; 6 weeks injection, fasted 5 hrs): significantly decreased
body mass ([2]; i.p. once every three days, 6 weeks, control kept increasing): stopped increasing body mass
serum ALK, ALT and AST levels ([2]; long-term treatment): significantly reduced
plasma triglyceride level ([2]; long-term treatment (data not shown)): did not significantly decrease
plasma cholesterol level ([2]; long-term treatment, compared to vehicle (data not shown)): significantly decreased
decrease of Apaf1 expression ([3]; 48 h): 3 fold
decrease of Chek2 expression ([3]; 48 h): 4.5 fold
Fold change Apaf1(NM_009684) ([3]; 2 days, pooled mRNA): −3.21 fold
Fold change Atr(NM_019864) ([3]; 2 days, pooled mRNA): −2.15 fold
Fold change Bag1(NM_009736) ([3]; 2 days, pooled mRNA): 2.0488 fold
Fold change Bnip3(NM_009760) ([3]; 2 days, pooled mRNA): 2.0112 fold
Fold change Brca1(NM_009764) ([3]; 2 days, pooled mRNA): −1.87 fold
Fold change Ccnb2(NM_007630) Cyclin B2 ([3]; 2 days, pooled mRNA): 1.90 fold
Fold change Ccne2(NM_009830) Cyclin E2 ([3]; 2 days, pooled mRNA): 2.52 fold
Fold change Cdc25a(NM_007658) ([3]; 2 days, pooled mRNA): 1.53 fold
Fold change Cdc25c(NM_009860) ([3]; 2 days, pooled mRNA): 1.56 fold
Fold change Cdkn1a(NM_007669) ([3]; 2 days, pooled mRNA): 3.0411 fold
Fold change Chek2(NM_016681) ([3]; 2 days, pooled mRNA): −4.65 fold
Fold change E2f3(NM_010093) ([3]; 2 days, pooled mRNA): 2.0193 fold
Fold change Ep300(NM_177821) ([3]; 2 days, pooled mRNA): 1.8114 fold
Fold change Esr1(NM_007956) ([3]; 2 days, pooled mRNA): 2.2535 fold
Fold change Gadd45a(NM_007836) ([3]; 2 days, pooled mRNA): −1.59 fold
Fold change Hif1a(NM_031168) ([3]; 2 days, pooled mRNA): 1.7576 fold
Fold change Mdm2(NM_010786) ([3]; 2 days, pooled mRNA): 1.6222 fold
Fold change Myod1(NM_010866) ([3]; 2 days, pooled mRNA): 1.56 fold
Fold change Nf1(NM_010897) ([3]; 2 days, pooled mRNA): 2.10 fold
Fold change Pcna(NM_011045) ([3]; 2 days, pooled mRNA): 3.7 fold and 3.77 fold
Fold change Prkca(NM_011101) ([3]; 2 days, pooled mRNA): 2.29 fold
Fold change Tnf(NM_013693) ([3]; 2 days, pooled mRNA): −2.76 fold
Fold change Tnfrsf10b(NM_020275) ([3]; 2 days, pooled mRNA): −2.28 fold
Fold change Trp73(NM_011642) ([3]; 2 days, pooled mRNA): 2.5194 fold
Fold change Wt1(NM_144783) ([3]; 2 days, pooled mRNA): 3.9 fold and 3.90 fold
Fold change Xrcc5(NM_009533) ([3]; 2 days, pooled mRNA): −1.90 fold

C[C@H](CCCC(C)(C)O)[C@H]1CC[C@H]2[C@@H]3CC=C4C[C@@H](O)CC[C@]4(C)[C@H]3CC[C@]12C [25HC, 25-hydroxycholesterol]
decrease of ACOX1 mRNA level ([1]; HFD mice, acute treatment): 55%
decrease of PPARα mRNA level ([1]; HFD mice, acute treatment): 40%
decrease of SCD mRNA level ([1]; HFD mice, acute treatment): 40%
increase of ACC1 mRNA level ([1]; HFD mice, acute treatment): 160%
increase of FAS mRNA level ([1]; HFD mice, acute treatment): 150%
increase of SREBP-1c mRNA level ([1]; HFD mice, acute treatment): 170%
increase of SULT2B1b expression ([1]; HFD mice, acute treatment): 3 fold
ABCA1 relative hepatic mRNA ([1]; HFD mice): 1.08 ± 0.24
ABCG1 relative hepatic mRNA ([1]; HFD mice): 1.38 ± 0.78
ACC1 relative hepatic mRNA ([1]; HFD mice): 1.58 ± 0.64
ACOX1 relative hepatic mRNA ([1]; HFD mice): 0.45 ± 0.17
CD36 relative hepatic mRNA ([1]; HFD mice): 0.71 ± 0.24
CPT1 relative hepatic mRNA ([1]; HFD mice): 0.94 ± 0.16
CYP7α relative hepatic mRNA ([1]; HFD mice): 0.19 ± 0.18
CYP27α relative hepatic mRNA ([1]; HFD mice): 1.00 ± 0.12
FABP1 relative hepatic mRNA ([1]; HFD mice): 0.48 ± 0.15
FAS relative hepatic mRNA ([1]; HFD mice): 1.45 ± 0.18
FATP relative hepatic mRNA ([1]; HFD mice): 0.67 ± 0.12
G6Pase relative hepatic mRNA ([1]; HFD mice): 0.25 ± 0.13
GCK relative hepatic mRNA ([1]; HFD mice): 0.57 ± 0.16
GPAM relative hepatic mRNA ([1]; HFD mice): 1.12 ± 0.27
LDLR relative hepatic mRNA ([1]; HFD mice): 1.38 ± 0.50
LXRα relative hepatic mRNA ([1]; HFD mice): 0.98 ± 0.09
MCAD relative hepatic mRNA ([1]; HFD mice): 0.75 ± 0.12
MTTP relative hepatic mRNA ([1]; HFD mice): 1.04 ± 0.14
PCK1 relative hepatic mRNA ([1]; HFD mice): 1.47 ± 0.37
PLTP relative hepatic mRNA ([1]; HFD mice): 0.81 ± 0.36
PPARα relative hepatic mRNA ([1]; HFD mice): 0.59 ± 0.09
Pkir relative hepatic mRNA ([1]; HFD mice): 0.77 ± 0.13
SCD relative hepatic mRNA ([1]; HFD mice): 0.59 ± 0.13
SRB1 relative hepatic mRNA ([1]; HFD mice): 1.52 ± 0.31
SREBP-1c relative hepatic mRNA ([1]; HFD mice): 1.69 ± 0.75
SULT2B1b relative hepatic mRNA ([1]; HFD mice): 3.33 ± 0.89
increase of IL1α expression ([1]; data not shown): 217%
increase of NFκB expression ([1]; data not shown): 168%
